Measurements published in ChEMBL document CHEMBL3507680, “University of Dundee, Gates Library screen for HepG2 cell viability”.

assay: Human HepG2 cell viability assay in 384 well format; format: toxicity, cell-based; parameters: dose 125 nL, time 70.5 hour; cytotoxicity at 70.5 h: concentration not given beside the values; conditions: HepG2 cells, read-out: Inhibition

| SMILES | cytotoxicity at 70.5 h |
| --- | --- |
| CCc1nc(CN2CC[C@@](O)(CCOC)[C@H](C)C2)cs1 | 17.7% |
| Cc1csc2c(N3CCC(NCCCC4CCOC4)CC3)ncnc12 (stereo unspecified) | 30.5% |
| CN(C)c1ccc(CN2CCN(c3ccc(C#N)cc3)C(=O)C2)cn1 | -7.99% |
| CNc1ncc(CN(C)Cc2cc(O)c3cc(F)ccc3n2)cn1 | -8.18% |
| O=C1CN(C(=O)c2cc(-c3ccco3)nc3c(Cl)cccc23)CCN1 | 9.84% |
| CCc1ocnc1C(=O)N1CCOC(CCCC(C)C)C1 (stereo unspecified) | -12.3% |
| CCc1nnc(CN(C)Cc2nc(-c3ccccc3Cl)oc2C)o1 | -3.53% |
| CN(Cc1nncn1C)c1nccc(N2CCC(O)CC2)n1 | -4.03% |
| Cc1cc(N2CCCN(C(=O)CSCC3CC3)CC2)ccn1 | -17.7% |
| CN(Cc1ccoc1)c1ccc(-c2nccn2C)nn1 | 26.2% |
| C/C=C(\C)CN1C[C@H](NC(=O)CCOC)[C@@H](c2ccc(C)o2)C1 | -18% |
| CC(C)n1cnnc1CN(C)C(=O)CCn1cnc2ccccc2c1=O | -17.5% |
| CCC1(C(=O)O)CCCN(CCOCc2ccccc2)C1 (stereo unspecified) | -9.39% |
| CCN(Cc1noc(CC(C)C)n1)C[C@]1(O)CCCN2CCCC[C@@H]21 | -11.7% |
| CC(NC(=O)CCCc1ccc(Cl)cc1)c1n[nH]c(=O)[nH]1 (stereo unspecified) | -0.585% |
| COCc1nc(CN2CC(Cc3ccccc3)CC2=O)no1 (stereo unspecified) | -8.93% |
| CCOC(=O)N1CCN(c2nc(C)ncc2CC)CC1 | 1.02% |
| Cc1cccc(C(=O)N2CCCCC2c2nc3cc(F)ccc3[nH]2)n1 (stereo unspecified) | -11.8% |
| Cc1ncc(CC(=O)N2C[C@@H]3CC[C@H](C2)N(CC2CCC2)C3)c(=O)[nH]1 | -17.8% |
| CCO[C@H]1C[C@@H](O)C12CCN(C1CCN(c3ccccc3C)CC1)CC2 | 3.61% |
| Cc1cccc(CN2CCN(c3ncnc4[nH]ccc34)CC2CCO)n1 (stereo unspecified) | -3.92% |
| Cc1nn(C)cc1C(=O)N1CCCn2nc(CN3CC[C@H](F)C3)cc2C1 | 6.52% |
| CC1(c2ccccc2)CCCN(C(=O)c2ccn3nnnc3c2)C1 (stereo unspecified) | -0.523% |

| SMILES | cytotoxicity at 70.5 h |
| --- | --- |
| N#Cc1c(C2CCOC2)cc(-c2ccc(N3CCCCC3)cc2)nc1N (stereo unspecified) | -7.42% |
| c1ccc(CN2CCN(C3CCOC4(CCOCC4)C3)CC2)nc1 (stereo unspecified) | -16.9% |
| Nc1cc(C(=O)N2CCOC(Cc3cccc(C(F)(F)F)c3)C2)ccn1 (stereo unspecified) | -7.49% |
| CCn1cc(CN2CCN(Cc3cc(C)cc(C)c3)C(=O)C2)cc1C#N | 15.6% |
| CCOc1cccc(C(=O)N2CCC3(CC2)[C@H](O)C[C@@H]3OC)c1 | 0.338% |
| CC(C)N1CCC(CC(=O)NCc2cc(O)ncn2)CC1 | -2.08% |
| C[C@@H]1CN(Cc2cn(C)nc2-c2ccccc2F)C[C@H](C)O1 | -11.3% |
| Cc1ccccc1C(C(=O)N(C)CCc1cn[nH]c1)N(C)C (stereo unspecified) | -7.29% |
| O=C(C1CCCC1)N1CCN(Cc2ccncc2)[C@@H]2CS(=O)(=O)C[C@@H]21 | -5.83% |
| CCn1nc(C(C)C)cc1C(=O)NCC1CCCN(c2ccccn2)C1 (stereo unspecified) | -6.28% |
| O=C(c1cnn[nH]1)N(CCCO)Cc1cccnc1 | 1.99% |
| Cc1cc(-n2cccn2)ccc1CN1CCC(O)(CN2CCCCC2)C1 (stereo unspecified) | 1.06% |
| Cc1noc(C)c1CCCNC(=O)C1CCN(C(=O)C2CCC2)CC1 | 5.79% |
| Cc1nc(C)c(C)c(N2CCC3(CCN(C)C3)C2)n1 (stereo unspecified) | -8.86% |
| COCCC(=O)NCc1cccnc1-n1cnc2ccccc21 | 6.94% |
| O=S1(=O)CCC(CNc2cc(-c3ccccc3)nc3ccnn23)C1 (stereo unspecified) | -9.95% |
| CCSc1ccc(C(=O)N2CCC3(CCC(=O)N(C)C3)CC2)s1 | -9.54% |
| CCc1nc(C)c(CC(=O)N2CCC3(CC2)OCCCC3O)c(=O)[nH]1 (stereo unspecified) | -6.44% |
| CN1CCN(Cc2ccc(-c3ccc(C(N)=O)cc3)nc2)CC1 | -7.94% |
| COCCN(C)C[C@@H]1CN(C(=O)c2ccc(C)cc2)C[C@@H]1CO | -9.29% |
| COc1nc2c(cc1C(=O)N1CCCC1c1ccccn1)CCC2 (stereo unspecified) | 1.54% |
| COc1ccc(NC(=O)c2ccc(CN3CC[C@H](O)C3)cc2)c(OC)n1 | -7.69% |
| COCc1ccc(C(=O)N2CCCN(Cc3ccc(F)cc3)CC2)s1 | 30.1% |

| SMILES | cytotoxicity at 70.5 h |
| --- | --- |
| CS(=O)(=O)NCC(=O)NCc1cccnc1-n1cnc2ccccc21 | 17.2% |
| COc1ccc(F)c(CN2CCCC(O)(CNCC(C)(C)C)C2=O)c1 (stereo unspecified) | 13.1% |
| COCCC1CCCCN1C(=O)c1coc(COc2ccccc2F)n1 (stereo unspecified) | -1.11% |
| Cc1ccc([C@@H]2CN(C(=O)CCc3ccco3)C[C@H]2N(C)C)cc1 | 0.00383% |
| CC(C)Cc1ncc2c(n1)CN(c1nccc(N(C)C)n1)C2 | -8.35% |
| Cc1nc(N(C)C)nc(N2CCC3(CC2)CNC(=O)O3)c1C | -5.15% |
| O=C(c1nc(=O)[nH]c2ccccc12)N1CCCC2(CCNC2)C1 (stereo unspecified) | 8.43% |
| C1CCC(c2nnc3sc(C4CCOC4)nn23)C1 (stereo unspecified) | -13.4% |
| O=c1cc(C2CCNCC2)nc(Cc2cccc(Cl)c2)[nH]1 | -5.11% |
| Cc1[nH]c2ccc(CNc3cc(C(N)=O)ccn3)cc2c1C | -0.16% |
| CC(=O)NCC(=O)N1CCCC(C(=O)c2ccc(C(C)(C)C)cc2)C1 (stereo unspecified) | -0.592% |
| CC(C)N1CCCC(C(=O)N2CCN(c3cnn(C)c(=O)c3)CC2)C1 (stereo unspecified) | -7.17% |
| Cc1cc2ccccc2n1CCC(=O)N1CCC2(CC1)CNC(=O)C2 | 3.32% |
| CS(=O)(=O)N1CC[C@]2(O)CCN(CCCC(=O)c3ccccc3)C[C@@H]2C1 | -2.45% |
| Cc1cccc2[nH]c(-c3cn(C4CCNCC4)nn3)nc12 | -3.11% |
| O=C(NCCn1cccn1)Nc1cc(C(=O)N2CCOCC2)ccc1Cl | -7.57% |
| Cc1nnsc1CN1C[C@H]2CC[C@@H]1CN(Cc1ccccn1)C2 | -6.51% |
| Cc1csc(CN2CC[C@@](O)(C3CCOCC3)[C@H](C)C2)n1 | -5.11% |
| Cc1nccn1-c1ccccc1CNC(=O)c1cn(CCN)nn1 | 1.29% |
| Cc1ccc([C@@H]2CN(S(=O)(=O)Cc3ccccc3)C[C@H]2N(C)C)cc1 | 1.88% |
| N#Cc1ccccc1C(=O)N1C[C@@H](CN2CCCCCC2)[C@@H](CO)C1 | -7.65% |
| Cc1ccc(C(N)=O)c(N2C[C@H]3OC(=O)N(C4CCCC4)[C@H]3C2)n1 | -11.9% |
| CSc1ccc(-c2nc(CN3CCC(CN)C3)c(C)o2)cc1 (stereo unspecified) | -3.18% |

| SMILES | cytotoxicity at 70.5 h |
| --- | --- |
| CCC(Nc1nc(C(C)C)nc2c1cnn2C)c1ccc(O)cc1 (stereo unspecified) | 5.5% |
| Cc1noc(CN(C)Cc2cnc(N3CCOCC3)nc2)n1 | -6.57% |
| CN(C)CC(=O)N1CCc2cccc(S(=O)(=O)N3CCOCC3)c2C1 | 0.694% |
| CN(C)Cc1nnc(C2CCN(c3ncccn3)CC2)n1C1CC1 | 12.1% |
| COc1ccc(-n2c(COC(C)C)n[nH]c2=O)cc1 | -6.26% |
| CCc1nc(CC2CN(c3ncnc4nc(C)cc(C)c34)CCO2)no1 (stereo unspecified) | -19% |
| CCNC(=O)[C@@H]1C[C@@H](N)CN1C(=O)c1[nH]c2ccccc2c1CC | 18% |
| O=S(=O)(NC1CCCN(c2ncccn2)C1)N1CCCCCC1 (stereo unspecified) | -7.28% |
| Cc1ccc(C(N)=O)c(N2Cc3cnc(C(C)(C)C)nc3C2)n1 | -11.7% |
| O=C(O)CC1COCCN1Cc1ccccc1-c1ccccc1 (stereo unspecified) | 14.8% |
| O=C(C1CCCC1)N1CCC(Nc2ccncn2)CC1 | -3.92% |
| Cc1nn(C)cc1Cn1c(=O)ccc2ccccc21 | -3.85% |
| CCc1nc(C)sc1CN1CC[C@](C)(O)[C@H](C)C1 | -2.71% |
| Cc1nc[nH]c1-c1nccn1CCN1CCCC1=O | 24.3% |
| O=C(Cn1ccnc1)N1CCCC(OCc2cccnc2)C1 (stereo unspecified) | 29.5% |
| COCC(=O)N1CCCC(C(=O)N(C)CCn2ccnc2C)C1 (stereo unspecified) | 3.1% |
| Cc1noc(-c2ccnc(Oc3cccc(CN4CCCC4)c3F)c2)n1 | -14.1% |
| COC(=O)CCCC(=O)N(C)CC1Cc2ccccc2CN1C (stereo unspecified) | -8.82% |
| COc1cc(N2C[C@@H](C)[C@](O)(C3CC3)C2)nc(N)n1 | -3.32% |
| O=C1NCCN(C(=O)CCN2CCCO2)C1c1cccc(F)c1 (stereo unspecified) | 4.41% |
| c1ccc(CN2C[C@@H]3CC[C@H](C2)N(Cc2nnc(C4CC4)o2)C3)cc1 | -8.78% |
| CN1CC2(CCN(c3nc(N)nc4c3CCNC4)CC2)OC1=O | -8.95% |
| CCOC(=O)N[C@H]1C[C@@H](C(=O)NCc2cccc(Cl)c2)N(C)C1 | -20.9% |

| SMILES | cytotoxicity at 70.5 h |
| --- | --- |
| CCCC1COCCN1Cc1ccc(C(=O)O)cc1 (stereo unspecified) | -4.7% |
| CC(=O)NC1CCN(c2nc(N(C)C)nc3c2CCN(C(C)=O)C3)CC1 | -7.29% |
| Cc1c[nH]c(CN2CCCCC2CCc2cccc(O)c2)c(C)c1=O (stereo unspecified) | -5.58% |
| CN(Cc1ccc2c(c1)OCO2)C(=O)c1ccc(C2CCCO2)s1 (stereo unspecified) | -6.85% |
| COc1cccc(CNC2CCSC2)c1OC (stereo unspecified) | -7.09% |
| CN(Cc1ccccc1CN1CCCC1)c1ncnc2[nH]ccc12 | -4.3% |
| CN1CCC(NN2CCN(C)CC2)CC1 | -17.5% |
| CC1CCC(NCCCN2CCOCC2)CC1 (stereo unspecified) | -6.93% |
| Cc1noc(CN(C)C(=O)CCn2cnc3ccccc32)n1 | -13.9% |
| COc1ccc(CCC(C)Nc2cccc(SC)c2)cc1 (stereo unspecified) | 23.6% |
| CCOCc1nc2c(c(NC(COC)c3ccccn3)n1)CCNCC2 (stereo unspecified) | -3.42% |
| CNC(=O)[C@@H]1C[C@@H](N)CN1Cc1ccc2cccc(OC)c2n1 | -2.31% |
| CSCC[C@@H](CO)n1ccnc1-c1ccncc1 | -10.3% |
| Cc1ccsc1-c1nccn1CCN1CCCOC1=O | -9.87% |
| CCN1CCN(C(=O)c2ccc3c(c2)NC(=O)CN3)[C@H]2CS(=O)(=O)C[C@H]21 | -8.61% |
| CC(C)[C@@H]1CN(C(=O)C2(c3ccccc3)CC2)C[C@H]1C(=O)O | -3.69% |
| COc1ncc(CN2CCC3(CCCN(CC4CCCCC4)C3)C2)cn1 (stereo unspecified) | 26.8% |
| CCNc1ncc(C(=O)NCc2cccc(OC(F)(F)F)c2)cn1 | -16.5% |
| c1ccc(COCCN2CCc3[nH]cnc3C2c2ccoc2)cc1 (stereo unspecified) | 26% |
